Key:
[1] = test system: cisplatin-resistant cancer cell line (CP20); test: Liponanoparticle cell viability MTS assay, CP20; type: cell-based
Protocol: (§1) In a 96 well plate, 2×10^3 cells were plated. After 4 h, cells were treated with different concentrations of free drug or lipo-nanoparticles. Cells without any treatment were kept as control. After 48 h, cell viability was assessed using standard MTS assay according to manufacturer's instructions.

[2] = test system: K-ras LSL/+ /Pten fl/fl ovarian adenocarcinomas; test: In vivo murine ovarian cancer tumor model (bioluminescence); parameters: species or system mice
Protocol: Ovarian adenocarcinomas were induced in genetically-engineered K-ras^LSL/+/Pten^fl/fl mice via intrabursal delivery of adenovirus carrying Cre recombinase, as described previously. Tumor cells were engineered to express luciferase once activated by Adeno-Cre, in order to make tumor imaging feasible before and after drug treatment.
Statistical analysis of the toxicity data was analyzed using a one-way ANOVA test with the Prism 5™ software.

4T1 breast cancer = settings: mouse, in vivo
Protocol: (§2) The LLC Lung Cancer cells and 4T1 Breast Cancer cells ([…]) were implanted subcutaneously in the flanks of 4-week-old C57/BL6 and BALB/c mice (weighing 20 g, Charles River Laboratories, MA) respectively. The drug therapy was started after the tumors attained volume of 50 mm^3. […] PBS (100 μL) administered by tail-vein injection was used as a control for drug treatment. The tumor volumes and body weights were monitored on a daily basis. The animals were sacrificed when the average tumor size of the control exceeded 2000 mm^3 in the control group. The tumors were harvested immediately following sacrifice and stored in 10% formalin for further analysis. All animal procedures were approved by Harvard institutional IUCAC.
(§3) The tissues were fixed in 10% formalin, paraffin embedded, sectioned and stained with H&E at the Harvard Medical School Core Facility. Tumor and Kidney paraffin sections were deparaffinized and stained with standard TMR-red fluorescent terminal deoxynucleotidyl transferase-mediated dUTP nick end labeling (TUNEL) kit following the manufacturer's protocol (In Situ Cell Death Detection Kit, TMR Red, Roche). Images were obtained using a Nikon Eclipse TE2000 fluorescence microscope equipped with red filter.
(§4) Body weights were recorded daily to assess toxicity. In addition, livers and spleens were removed at the end of treatment to record weights and perform extensive pathological examination to assess toxicity of vital organs. Cell apoptosis in vital organs was measured using TUNNEL assay. Statistical analysis of the toxicity data was performed using a two-way ANOVA test with the Prism 5™ software.

Lewis lung carcinoma = test system: Lewis lung carcinoma
Protocol: as §2, §3, §4

[3] = test system: Lewis Lung Carcinoma cell lines (LLC); test: MTS cell viability assay, LLC cells; type: cell-based, murine; settings: for EC50: cisplatin-equivalent concentration; for IC50: 48 hours post-incubation, read-out: IC50 (LLC cell kill)
Source text: The absorbance reflects the number of surviving cells.

4T1 breast cancer cells = test: Liponanoparticle cell viability MTS assay, 4T1; type: cell-based; settings: three time points
Protocol: In a 96 well plate, 2×10^3 cells were plated. After 4 h, cells were treated with different concentrations of free drug or lipo-nanoparticles. Cells without any treatment were kept as control. […]

[4] = test system: Lewis lung cancer cell line (LLC); test: Liponanoparticle cell viability MTS assay, LLC; type: cell-based
Protocol: as §1

| SMILES | effect on viability of CP20 cells [1] | apoptosis in the kidney (TUNEL) ([2]; 3 mg/kg or equivalent Pt concentration) | body weight ([2]; daily recording) | apoptosis in the kidney (4T1 breast cancer) | tumor growth inhibition (Lewis lung carcinoma; dose equivalent to 1.25 mg/kg of cisplatin, three doses i.v.) | apoptosis in kidney (TUNEL) (Lewis lung carcinoma; mouse, in vivo) | apoptosis in tumor (TUNEL) (Lewis lung carcinoma; mouse, in vivo) | kidney H&E pathology (Lewis lung carcinoma; mouse, in vivo) | tumor inhibition, dose dependence (Lewis lung carcinoma; three doses i.v., 1.25 and 3 mg/kg) | effect on LLC cell viability ([3]; 48 h) | concentration for complete cell kill ([3]; LLC cells) | EC50 ([3]; LLC cells, 48 h) [µM] | IC50 ([3]; LLC cells) [µM] | effect on viability of 4T1 breast cancer cells (4T1 breast cancer cells) | effect on viability of LLC cells [4] |
| --- | --- | --- | --- | --- | --- | --- | --- | --- | --- | --- | --- | --- | --- | --- | --- |
| N.N.[Cl][Pt][Cl] [Cisplatin, cis-dichlorodiammineplatinum(II)] | only at the highest concentration | significant apoptosis in the kidney | significant loss of body weight | significant apoptosis in the kidney | only a minor tumor growth inhibition | significant apoptosis | significant induction of apoptosis | significant tubular necrosis | dose-dependent tumor inhibition | identical cell kill | greater than 20 uM | 3.87 ± 0.37 | 3.87 ± 0.37 |  |  |
| N.N.O=C([O-])C1(C(=O)[O-])CCC1.[Pt+2] [Carboplatin, cis-Diammine-(1,1-cyclobutanedicarboxylato) platinum(II)] | no effect at this concentration range |  |  |  |  |  |  |  |  |  |  | 14.8 ± 0.38 | 14.8 ± 0.38 | least effective of all platinates tested | no effect at this concentration range |
